One series deals with Entero. faecium (VRE). Briefly: MIC broth microdilution, Gram-positive clinical isolates. The class given is cell-based. To be noted: Enterococcus faecium; Entero. faecium (VRE); 2-3 isolates/organism; read-out: MIC. As for the experimental part:
Compound A was evaluated in vitro in accordance with defined CLSI documents specific to the organisms (aerobic, anaerobic or yeast) tested in this study. Ampicillin, ceftazidime, cefuroxime, ciprofloxacin, linezolid, and vancomycin were tested alongside as comparator agents for aerobic bacteria; clindamycin and metronidazole were tested as comparators for anaerobes; fluconazole was tested as a comparator for yeast isolates. Stock solutions of Compound A were prepared in dimethyl sulfoxide (DMSO). Ampicillin, ceftazidime, cefuroxime, ciprofloxacin, linezolid, vancomycin, metronidazole, clindamycin, and fluconazole were prepared each according to its manufacturer's guideline.
Minimum inhibitory concentrations (MICs) in μg/ml were determined according to CLSI guideline M7-A7 by broth microdilution. All aerobes were tested using Mueller-Hinton broth medium with the exception of Streptococcus spp., which were tested using cation-adjusted Mueller-Hinton broth supplemented with 2-5% lysed horse blood.

A further series concerns S. aureus. Briefly: MIC or MIC90 vs S. aureus (selectivity table). Type of series: cell-based. As to conditions: Staphylococcus aureus; * marks MIC90.
Series [1] is described as follows: Cytotoxicity colorimetric assay, HepG2. Type of series: cell-based, human. To be noted: human, HepG2 cells; one hour in serum-free media.
Experimental: This assay measures the bioreduction of a novel tetrazolium compound to a soluble formazan product by viable cells. HepG2 cells were seeded in 96 well plates at 2×10^4 cells/well in MEM medium with 10% fetal bovine serum (FBS) 24 hours prior to use. NIH/3T3 cells were seeded in 96 well plates at 2×10^4 cells/well in DMEM medium with 10% bovine calf serum (BCS) 24 hours prior to use. […] After incubation, the media was replaced with serum supplemented media and live cells were measured using the Cell Titer 96 Aqueous Non-Proliferation Assay kit (Promega, Madison, Wis.). EC50 values were determined using a four parameter logistic equation: Y=Bottom+(Top-Bottom)/(1+10^((LogEC50−X)*HillSlope)).
Another series concerns HepG2. Briefly: Cytotoxicity colorimetric assay, HepG2. The class given is cell-based, human. To be noted: vs S. aureus MIC.
The test system of a further series is S. aureus (ATCC 13709). Briefly: Mouse thigh burden model. The class given is in vivo. To be noted: for bacterial reduction vs inoculated control group: thighs at 25 hours. As for the experimental part: Female 6-7-week old CD-1 mice were made neutropenic with cyclophosphamide (150 mg/kg, i.p.) on days 4 and 1 before i.m. inoculation with S. aureus (ATCC 13709). S. aureus inoculum was prepared by transferring colonies from 18-20-hour tryptic soy agar (TSA) cultures to sterile PBS. The density was adjusted to approximately 10^6 cfu/mL with the aid of a spectrophotometer, and the inoculum concentration was determined by the dilution plate count method. Mice were inoculated by injecting each posterior thigh with 0.1 mL of inoculum. Compound A was given to separate groups of mice (4 females/group) by i.v. bolus doses of 1 or 2 mg/kg/dose at 1 and 5, 1 and 9, or 1 and 13 hours post inoculation as shown in Table 5. A separate control group of 4 mice received the inoculum without antibiotic treatment. Compound A was dissolved 50%/50% v/v sterile USP purified water/PBS. Thighs were harvested at 25 hours after inoculation. Thigh muscle and bone tissue were homogenized, aliquots of serial dilutions were plated on TSA and incubated at 37° C. for 20 hours, and colony counts were obtained to calculate cfu/thigh.

In a further series the test system is MSSA 27660. Briefly: Mouse peritonitis/sepsis model against MSSA 27660. The class given is in vivo.
A short description of the next series: Pharmacokinetics in rats. To be noted: Crl:CD (SD), plasma, iv; rat, 5 mg/kg, i.v. bolus. Type of series: in vivo. How it is done:
Crl:CD (SD) rats were administered Compound A by i.v. bolus injection at the indicated dosages. Plasma was prepared from blood samples taken at 9 time points (n=3) over 28 hours. Compound levels were determine by HPLC-MS/MS. All animals were fitted with two jugular vein cannula (JVC), one each for dose administration and blood collection. Each route of administration was dosed as N=3. Animals were supplied with a commercial rodent diet and water ad libitum. Each rat received a bolus dosed via the appropriate route of administration at time zero on the day of dosing.
Each blood sample was collected from the rats via a JVC and placed into chilled polypropylene tubes containing sodium EDTA as an anticoagulant. Samples were centrifuged at a temperature of 4° C. and at a speed of 13,000 rpm for 5 minutes. Samples were maintained chilled throughout processing. Each plasma sample was then transferred into labeled polypropylene tubes, placed on dry ice, and stored in a freezer set to maintain −60° C. to −80° C.
Plasma study samples were extracted and analyzed using a previously developed method. A single standard curve and six replicates of quality control samples at three concentrations were extracted using DMSO containing 0.1% formic acid. Plasma samples (50 μL) were added to 150 μL solvent and centrifuged. Supernatants were analyzed by LC/MSMS using a Perkin Elmer series 200 micropump and PE Sciex API4000 Electrospray mass spectrometer. Standard curves were prepared at concentrations of 10000, 5000, 1000, 500, 250, 100, 50 and 25 ng/mL. Quality control samples were prepared at concentrations of 5000, 500, and 50 ng/mL. The standard curve and quality control samples were prepared from independently prepared stock solutions. At least ⅝ of standards must have accuracy within ±15%, except at the LLOQ where ±20% is acceptable. Two thirds of the batch QCs must have accuracy within ±15% of nominal, and at least one QC must pass at each level in order for the run to be accepted.
Individual plasma concentration versus time data for Compound A was subjected to non-compartmental analysis using the pharmacokinetic program WinNonlin v4.1. Plasma concentrations below the limit of quantitation (25 ng/ml) were assigned a value of zero for pharmacokinetic analysis. Nominal dosing concentrations were used in all calculations.

The nature of a further series: in vivo. As to conditions: rat, iv.

Structures can show the parent of a compound that is named as a salt.

Experimental for in vivo: Maximum tolerated dose (MTD) determinations were made in ascending/descending dose studies in mice and rats. Compound A was administered by either i.v. bolus injection in the tail vein of mice and rats or by i.v. infusion via catheter in the femoral vein of rats. At each dose, two to three animals were administered compound and clinical signs were recorded over a 4 to 7 day period. Gross necropsy was performed at the conclusion of the study.

`N=C(N)NCCCCC(=O)Nc1cc(C(F)(F)F)cc(NC(=O)c2cc(C(=O)Nc3cc(C(F)(F)F)cc(NC(=O)CCCCNC(=N)N)c3O[C@H]3CCNC3)ncn2)c1O[C@H]1CCNC1` [Compound A, pyrimidine-4,6-dicarboxylic acid bis-{[3-(5-guanidino-pentanoylamino)-2-((R)-pyrrolidin-3-yloxy)-5-trifluoromethyl-phenyl]-amide}tetrahydrochloride]: the MIC in the series with Entero. faecium (VRE) turned out to be 1 µg/mL. In the series with S. aureus, this compound registered an MIC90 of 1 µg/mL. The half-maximal effective concentration (EC50) at 1 h in series [1] stood at 1030 µg/mL. In addition, the “Selectivity (EC50/MIC) HepG2” value with HepG2 is given as 1,031. Moreover, the “bacterial reduction vs inoculated control group” value in the series with S. aureus (ATCC 13709) (2 mg/kg/dose i.v. bolus at 1 and 5 hours after inoculation) was 3.96 logs. For the same compound, in the series with S. aureus (ATCC 13709) (2 mg/kg/dose i.v. bolus at 1 and 9 hours after inoculation), the “bacterial reduction vs inoculated control group” value is 3.93 logs. In addition, the “static efficacy dose in the thigh burden model” value with S. aureus (ATCC 13709) (mouse) was in the range of 2 to 4 mg/kg. The efficacy in vivo result in the series on MSSA 27660 was “efficacious”. In “Pharmacokinetics in rats”, this compound showed a Cmax of 89.2 µg/mL, a Vd of 0.11 L/kg, a clearance of 0.467 mL/min/kg and a half-life of 3 h. The compound also displayed an MTD in “in vivo” of more than 24 mg/kg.

The record behind these values is patent publication US8278309B2, “Synthetic mimetics of host defense and uses thereof” (priority 2008, dated 2012).
